What all share (format): biochemical
For data set [1], the target named is T1, Candida antartica lipase fraction B (CALB) (Moesziomyces antarcticus, UniProt P41365).
T1 construct: purchased Boehringer Mannheim CHIRAZYME L-2
T1 sequence (P41365 26-342): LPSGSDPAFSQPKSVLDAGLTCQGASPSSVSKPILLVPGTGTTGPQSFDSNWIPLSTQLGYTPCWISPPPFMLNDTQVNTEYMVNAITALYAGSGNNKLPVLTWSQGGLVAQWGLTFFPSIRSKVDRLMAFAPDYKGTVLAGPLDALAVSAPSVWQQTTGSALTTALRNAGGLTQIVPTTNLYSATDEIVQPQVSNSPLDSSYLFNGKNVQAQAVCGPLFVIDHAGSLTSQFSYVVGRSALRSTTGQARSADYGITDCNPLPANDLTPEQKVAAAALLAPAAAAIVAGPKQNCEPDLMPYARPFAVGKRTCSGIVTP
The conditions noted are these: for resolution with high enantioselectivity: CALB or any of the other commercially-available esterases, lipases, and proteases screened (Examples 7, 8); for isomer remaining: candida antartica lipase b, 19000 µM, pH 5. On the procedure: Reacting a 0.10M solution of the 1:1 mixture of KDP(MEMC) and KLP(MEMC) in 0.20M succinate (pH 6.0) at 25° C. for 5 h with approximately 1-3 mg/mL of Candida antartica lipase fraction B (CALB) produced a 95% ee (substrate) of KDP(MEMC) at 51% conversion. […] The calculated enantioselectivity (E) at 51% conversion was E=81.
The enzymatic hydrolysis reaction of KDP(MEMC) and KLP(MEMC) using CALB (described above) was repeated at pH 5.0 in 0.20M acetate buffer (Example 2), and a 100% ee (substrate) of the D-isomer was obtained at 51% conversion (E=>1000); the reaction rate was approximately 50% of the rate at pH 6.0, and the slight loss of the D-isomer at pH 5.0 was again observed in the absence of added enzyme (95% recovery at pH 5.0 after 24 h with no enzyme).
The procedure described in Example I was repeated using Candida antartica lipase fraction B (CALB), except that the reaction was run in 0.200M sodium cetate (pH 5.0) instead of the 0.20M sodium succinate buffer (pH 6.0) used for Candida antartica lipase fraction B in Example 1. Aqueous solutions (5.0 mL) containing varying concentrations of a racemic mixture of N-(methoxycarbonyl)-4-keto-D,L-proline methyl ester and CALB were mixed at 15° C., 25° C., 35° C. or 45° C.
An aqueous solution (5.0 mL) containing 25 mM N-(methoxycarbonyl)-4-keto-Dproline methyl ester and 25 mM N-(methoxycarbonyl)-4-keto-L-proline methyl ester in 0.200M sodium acetate (pH 5.0) was mixed with 2.5 g of immobilized Candida antartica lipase fraction B (Boehringer Mannheim, CHIRAZYME® L-2, c.-f., C2, lyo.) at 25° C. […] The dichloromethane extract was then analyzed by chiral gas chromatography on a Chiraldex G-TA column (Advanced Separation Technologies, Inc., 50 m×0.32 mm ID) to determine the amounts of the unreacted D- and L-isomers. After 31 h, an 85% enantiomeric excess of N-(methoxycarbonyl)-4-keto-D-proline methyl ester was obtained at 41% conversion of the racemic mixture.
A 200 mL aqueous solution containing 0.200M sodium acetate (pH 5.0), 1.3325 g of Candida antartica lipase fraction B, and 4.02 g of racemic N-(methoxycarbonyl)-4-keto-D,L-proline methyl ester (100 mM) was stirred at 25° C. After 24 h, an 96% enantiomeric excess of N-(methoxycarbonyl)-4-keto-D-proline methyl ester was obtained at 50% conversion of the racemic mixture. The reaction mixture was filtered using a 10,000 MWCO membrane filter (Amicon) to remove the enzyme catalyst, and the filtrate extracted with three 200 mL portions of dichloromethane. The combined organic extracts were dried over magnesium sulfate, filtered, and the dichloromethane removed from the filtrate by rotary evaporation at reduced pressure. Residual dichloromethane was removed from the resulting colorless oil at high vacuum (50 millitorr) to produce N-(methoxycarbonyl)-4-keto-D-proline methyl ester as a white solid (1.99 g, 99% isolated yield, 99% purity (by GC), 97% ee).
An aqueous solution (2.0 mL) containing 50 mM N-(ethoxycarbonyl)-4-keto-D-proline ethyl ester and 50 mM N-(ethoxycarbonyl)-4-keto-L-proline ethyl ester in 0.200M sodium acetate (pH 5.0) and 30 mg/mL of Candida antartica lipase fraction B was mixed at 25° C. […] The dichloromethane extract was then analyzed by chiral gas chromatography on a Chiraldex G-TA column (Advanced Separation Technologies, Inc., 50 m×0.32 mm ID) to determine the amounts of the unreacted D- and L-isomers. After 24 h, a 100% enantiomeric excess of N-(ethoxycarbonyl)-4-keto-D-proline ethyl ester was obtained at 51% conversion of the racemic mixture.
An aqueous solution (1.0 mL) containing 19 mM of N-(2-phenylacetyl)-4-keto-D-proline methyl ester and 19 mM of N-(2-phenylacetyl)-4-keto-L-proline methyl ester in 0.200M sodium acetate (pH 5.0) and 25 mg/mL of Candida antartica lipase fraction B was mixed at 25° C. […]

The nature of data set [2]: Enzyme screens for resolution of diastereomeric mixture CHLP(MEMC)/THLP(MEMC) (Example 13). Conditions: 0.050M each isomer, 5 h, 5.0 to 50 mg/mL enzyme, 25° C. On the procedure:
(§1) An aqueous solution containing 0.050M N-(methoxycarbonyl)-trans-4-hydroxy-L-proline methyl ester and 0.050M N-(methoxycarbonyl)-cis-4-hydroxy-L-proline methyl ester in 0.100M potassium phosphate (pH 7.0) was mixed with 5.0 to 50 mg/mL of commercial enzyme preparations (listed in the table below) at 25° C. The reactions were analyzed after 5 h by removal of a 0.200 mL sample and mixing with an equivalent volume of 0.100M propionic acid (HPLC internal standard) in water. The resulting solution was filtered through a 10K molecular weight cut-off filter to remove the enzyme and the filtrate analyzed by high pressure liquid chromatography on a HPX-87H column (Bio-Rad, 30 cm×7.8 mm) to determine the percent conversion of the diastereomeric mixture, and the diastereomeric excess of the N-(methoxycarbonyl)-cis-4-hydroxy-L-proline methyl ester.

A short description of data set [3]: Enzyme screens for resolution of racemic N-(methoxycarbonyl)-4-keto-D,L-proline methyl ester (Example 1). Conditions: 0.100M racemate, 5.0 to 50 mg/mL enzyme, 25° C., optimum. The protocol:
An aqueous solution (1.0 mL) containing 0.100M racemic N-(methoxycarbonyl)-4-keto-D,L-proline methyl ester in either 0.20M sodium succinate (pH 6.0) or 0.20M sodium acetate (pH 5.0) was mixed with 5.0 to 50 mg/mL of commercial enzyme preparations (listed in the table below) at 25° C. […] The dichloromethane extract was then analyzed by chiral gas chromatography on a Chiraldex G-TA column (Advanced Separation Technologies, Inc., 50 m×0.32 mm ID) to determine the percent conversion of the racemate, and the enantiomeric excess of the N-(methoxycarbonyl)-4-keto-D-proline methyl ester.

Data set [4] in a line: Enzyme screens for resolution of diastereomeric mixture CHDP(MEMC)/THLP(MEMC) (Example 9). The conditions noted are these: 0.050M each isomer, 5 h or 24 h, 5.0 to 50 mg/mL enzyme, 25° C. The protocol: as §1, with “aqueous solution (1.0 mL) containing 0.050M” for “aqueous solution containing 0.050M”, “and 0.050M N-(methoxycarbonyl)-cis-4-hydroxy-D-proline methyl ester” for “and 0.050M N-(methoxycarbonyl)-cis-4-hydroxy-L-proline methyl ester”, “after 5 h or 24 h by” for “after 5 h by”, “conversion of each isomer of the diastereomeric” for “conversion of the diastereomeric”, “of the N-(methoxycarbonyl)-cis-4-hydroxy-D-proline methyl ester.” for “of the N-(methoxycarbonyl)-cis-4-hydroxy-L-proline methyl ester.”

Setting [5] is: 50 mM each isomer, 30 mg/mL CALB, pH 5.0, 25° C., 24 h.
[6] abbreviates: 0.10M 1:1 mixture, 0.20M succinate pH 6.0, 25° C., 5 h, approximately 1-3 mg/mL CALB.
[7] abbreviates: 100 mM racemate, 10 mg/mL CALB, 25° C., 24 h, pH 5.0.
The mark [8] stands for this setting: 100 mM racemate, 20 mg/mL CALB, 45° C., 6 h, pH 5.0.
Setting [9] is: 200 mM racemate, 6.7 mg/mL CALB, 35° C., 29 h, pH 5.0.
[10] abbreviates: 300 mM racemate, 31 mg/mL CALB, 45° C., 23 h, pH 5.0.
The mark [11] stands for this setting: 200 mL, 100 mM racemate, 1.3325 g CALB, pH 5.0, 25° C., 24 h.
[12] abbreviates: immobilized CALB 2.5 g in 5.0 mL, 25 mM each isomer, pH 5.0, 25° C., 31 h.
Setting [13] is: 19 mM each isomer, 25 mg/mL CALB, pH 5.0, 25° C., 28 h.
The mark [14] stands for this setting: 0.100M potassium phosphate pH 7.0.

Read-outs that look alike come from different tables or passages of the source. Bounds are passed on as bounds.

Take `COC(=O)C1CC(=O)CN1C(C)=O` (racemic) [N-(acetyl)-4-keto-D,L-proline methyl ester]: the “resolution with high enantioselectivity” value in data set [1] is “could not be resolved with high enantioselectivity”.
In the case of `CCOC(=O)C1CC(=O)CN1C(=O)OCC` (racemic) [N-(ethoxycarbonyl)-4-keto-D,L-proline ethyl ester], in data set [1] (setting [5]), the “conversion of the racemic mixture” value is given as 51% and the “enantiomeric excess of the D-isomer (KDP(EEEC))” value is listed as 100%.
For `COC(=O)[C@@H]1CC(=O)CN1C(=O)Cc1ccccc1` [N-(2-phenylacetyl)-4-keto-L-proline methyl ester], in data set [1] (28 h), the isomer remaining was found to be 28%.
For the molecule `COC(=O)C1CC(OC)(OC)CN1C(=O)OC` (racemic) [N-(methoxycarbonyl)-4,4-dimethoxy-D,L-proline methyl ester], the “resolution with high enantioselectivity” value in data set [1] is recorded as “could not be resolved with high enantioselectivity”.
With `COC(=O)C1CC(=O)CN1C(=O)OC` (racemic) [N-(methoxycarbonyl)-4-keto-D,L-proline methyl ester], the conversion in data set [1] (setting [6]) and in data set [1] (0.20M acetate buffer pH 5.0) was 51% each time. The “ee (substrate) of KDP(MEMC)” value in data set [1] (setting [6]) came to 95%. In addition, the “ee D-isomer” value came to 100% in data set [1] (setting [7]); 100% in data set [1] (100 mM racemate, 20 mg/mL CALB, 15° C., 24 h, pH 5.0); 100% in data set [1] (setting [8]); 97% in data set [1] (setting [9]); 99% in data set [1] (setting [10]). The racemate conv. in data set [1] (setting [7]) was determined as 51%; in data set [1] (100 mM racemate, 20 mg/mL CALB, 15° C., 24 h, sodium acetate pH 5.0) it was 51%; in data set [1] (setting [8]), 50%; in data set [1] (setting [9]), 51%; in data set [1] (setting [10]), 48%. Besides, the “ee (substrate) of the D-isomer” value in data set [1] (0.20M acetate buffer pH 5.0) stood at 100%. Also, the “conversion of the racemic mixture” value in data set [1] (setting [11]) was 50%; in data set [1] (setting [12]), 41%. In addition, the entries for the “enantiomeric excess of the D-isomer” value in data set [1] (setting [11]) and in data set [1] (setting [12]) were 96% and 85%, respectively. Also, the “enantioselectivity (E)” value in data set [1] (at 51% conversion, pH 5.0) is > 1000. Further, the “calculated enantioselectivity (E)” value in data set [1] (at 51% conversion, pH 6.0) is recorded as 81. Further, the “reaction rate relative to the rate at pH 6.0” value in data set [1] (pH 5.0) is reported as “approximately 50%”.
`COC(=O)[C@H]1CC(=O)CN1C(=O)Cc1ccccc1` [N-(2-phenylacetyl)-4-keto-D-proline methyl ester] registered an isomer remaining in data set [1] (28 h) of 97%.
As to `COC(=O)C1CC(=O)CN1C(=O)Cc1ccccc1` (racemic) [N-(2-phenylacetyl)-4-keto-D,L-proline methyl ester], in data set [1] (setting [13]), the “conversion of the racemic mixture” value is listed as 38% and the “enantiomeric excess of the D-isomer” value is 55%.

B1: protease, type VIII: commercial enzyme preparation, source Bacillus licheniformis (protein, UniProt P00780 106-379, looked up)
Subtilisin Carlsberg: AQTVPYGIPLIKADKVQAQGFKGANVKVAVLDTGIQASHPDLNVVGGASFVAGEAYNTDGNGHGTHVAGTVAALDNTTGVLGVAPSVSLYAVKVLNSSGSGSYSGIVSGIEWATTNGMDVINMSLGGASGSTAMKQAVDNAYAKGVVVVAAAGNSGSSGNTNTIGYPAKYDSVIAVGAVDSNSNRASFSSVGAELEVMAPGAGVYSTYPTNTYATLNGTSMASPHVAGAAALILSKHPNLSASQVRNRLSSTATYLGSSFYYGKGLINVEAAAQ
Turning to B1, the entries for the “conv. (percent conversion of the diastereomeric mixture)” value in data set [2] (setting [14]) and in data set [4] (setting [14]) were 4% and 16%, respectively. The “% de (diastereomeric excess of the cis-L-isomer)” value in data set [2] (pH 7.0) is recorded as 6%. Moreover, the “conv. (percent conversion of the racemate)” value in data set [3] (0.20M sodium succinate pH 6.0, 5 h or 0.20M sodium acetate pH 5.0, 24 h) was 32%. In addition, the “% ee (enantiomeric excess of the D-isomer; L-isomer with porcine liver esterase)” value in data set [3] (pH 6.0, 5 h or pH 5.0, 24 h) was 23%. Moreover, in data set [4] (pH 7.0), the “% de (diastereomeric excess of the D-isomer, CHDP(MEMC))” value came out at 16%.

(Values after patent publication US5928933A, “Process for the enzymatic resolution of N-(alkoxycarbonyl)-4-ketoproline alkyl esters or N-(alkoxycarbonyl)-4-hydroxyproline alkyl esters using Candida antarctica lipase B” (priority 1998, dated 1999).)
